Assay results published in EP2242752B1, “[…] IMIDAZOLES AS HEPATITIS C VIRUS INHIBITORS” (Bristol-Myers Squibb Company, priority 2008, dated 2009).

tested on: HCV 1b genotype; assay: HCV Replicon assay (HCV 16-377-neo replicon cells); type: cell-based; details: Hepatitis C virus; HCV 1b genotype replicon cells; read-out: EC50 ranges against HCV 1b
Method: An HCV Replion assay was utilized in the present disclosure, and was prepared, conducted and validated as described in commonly owned PCT/US2006/022197 and in O'Boyle et. al. Antimicrob Agents Chemother. 2005 Apr;49(4): 1346-53.
HCV 16-377-neo replicon cells were used to test the currently described compound series as well as cells resistant to compound A due to a Y2065H mutation in NS5A (described in application PCT/US2006/022197). The compounds tested were determined to have more than 10-fold less inhibitory activity on cells resistant to compound A than wild-type cells indicating a related mechanism of action between the two compound series. Thus, the compounds of the present disclosure can be effective to inhibit the function of the HCV NS5A protein and are understood to be as effective in combinations as previously described in application PCT/US2006/022197 and commonly owned WO/O4014852. Further, the compounds of the present disclosure can be effective against the HCV 1b genotype. It should also be understood that the compounds of the present disclosure can inhibit multiple genotypes of HCV. […] In one embodiment compounds of the present disclosure are active against the 1a, 1b, 2a, 2b, 3a, 4a, and 5a genotypes.

Row | Structure (SMILES) | EC50 [pM]
1 | COC(=O)N[C@@H](C)C(=O)N1CCC[C@H]1c1nc(-c2ccc(-c3ccc(-c4nc([C@@H]5CCCN5C(=O)[C@H](C)NC(=O)OC)[nH]c4C)cc3)cc2)c(C)[nH]1 [Example E5k, methyl ((1S)-2-((2S)-2-(4-(4'-(2-((2S)-1-(N-(methoxycarbonyl)-L-alanyl)-2-pyrrolidinyl)-5-methyl-1H-imidazol-4-yl)-4-biphenylyl)-5-methyl-1H-imidazol-2-yl)-1-pyrrolidinyl)-1-methyl-2-oxoethyl)carbamate] | 1 to 999
2 | C[C@H]1CC[C@@H](c2nc(-c3ccc(-c4ccc(-c5c[nH]c([C@@H]6CC[C@H](C)N6C(=O)Cc6ccccc6)n5)cc4)cc3)c[nH]2)N1C(=O)Cc1ccccc1 [Example M159, 4,4'-(4,4'-biphenyldiyl)bis(2-((2S,5S)-5-methyl-1-(phenylacetyl)-2-pyrrolidinyl)-1H-imidazole)] | 1 to 999
3 | COC(=O)N[C@@H](C(=O)N1CC2(CC2)C[C@H]1c1nc(-c2ccc(-c3ccc(-c4c[nH]c([C@@H]5CC6(CC6)CN5C(=O)[C@H](NC(=O)OC)c5ccccc5)n4)cc3)cc2)c[nH]1)c1ccccc1 [Example M150, dimethyl (4,4'-biphenyldiylbis(1H-imidazole-4,2-diyl(6S)-5-azaspiro[2.4]heptane-6,5-diyl((1R)-2-oxo-1-phenyl-2,1-ethanediyl)))biscarbamate] | 1 to 999
4 | COC(=O)N[C@H](C(=O)N1[C@@H]2C[C@@H]2C[C@H]1c1ncc(-c2ccc(-c3ccc(-c4cnc([C@@H]5C[C@H]6C[C@H]6N5C(=O)CCCC[C@@H]5SC[C@@H]6NC(=O)N[C@@H]65)[nH]4)cc3)cc2)[nH]1)C(C)C [Example M139] | 1 to 999
5 | COC(=O)N[C@H](C(=O)N1CC2(CC2)C[C@H]1c1nc(-c2ccc(-c3ccc(-c4c[nH]c([C@@H]5CC6(CC6)CN5C(=O)[C@@H](NC(=O)OC)C(C)C)n4)cc3)cc2)c[nH]1)C(C)C [Example M145, methyl ((1S)-1-(((6S)-6-(4-(4'-(2-((6S)-5-((2S)-2-((methoxycarbonyl)amino)-3-methylbutanoyl)-5-azaspiro[2.4]hept-6-yl)-1H-imidazol-4-yl)-4-biphenylyl)-1H-imidazol-2-yl)-5-azaspiro[2.4]hept-5-yl)carbonyl)-2-methylpropyl)carbamate] | 1 to 999
6 | CCCc1[nH]c([C@@H]2CCCN2C(=O)[C@@H](c2ccccc2)N(CC)CC)nc1-c1ccc(-c2ccc(-c3c[nH]c([C@@H]4CCCN4C(=O)[C@@H](c4ccccc4)N(CC)CC)n3)cc2)cc1 [Example J14c.1, (1R)-2-((2S)-2-(4-(4'-(2-((2S)-1-((2R)-2-(diethylamino)-2-phenylacetyl)-2-pyrrolidinyl)-1H-imidazol-4-yl)-4-biphenylyl)-5-propyl-1H-imidazol-2-yl)-1-pyrrolidinyl)-N,N-diethyl-2-oxo-1-phenylethanamine] | 1 to 999
7 | COC(=O)Cc1[nH]c([C@@H]2CCCN2C(=O)[C@@H](NC(=O)OC)[C@@H](C)OC)nc1-c1ccc(-c2ccc(-c3c[nH]c([C@@H]4CCCN4C(=O)[C@@H](NC(=O)OC)[C@@H](C)OC)n3)cc2)cc1 [Example J14b, methyl (2-((2S)-1-(N-(methoxycarbonyl)-O-methyl-L-threonyl)-2-pyrrolidinyl)-4-(4'-(2-((2S)-1-(N-(methoxycarbonyl)-O-methyl-L-threonyl)-2-pyrrolidinyl)-1H-imidazol-4-yl)4-biphenylyl)-1H-imidazol-5-yl)acetate] | 1 to 999
8 | CCN(CC)[C@@H](C(=O)N1CCC[C@H]1c1nc(C)c(-c2ccc(-c3ccc(-c4[nH]c([C@@H]5CCCN5C(=O)[C@@H](c5ccccc5)N(CC)CC)nc4C)cc3)cc2)[nH]1)c1ccccc1 [Example E5h, (1R,1'R)-2,2'-(4,4'-biphenyldiylbis((4-methyl-1H-imidazole-5,2-diyl)(2S)-2,1-pyrrolidinediyl))bis (N,N-diethyl-2-oxo-1-phenylethanamine)] | 1 to 999
9 | COC(=O)N[C@@H](C)C(=O)N1CCC[C@H]1c1nc(-c2ccc(-c3ccc(-c4[nH]c([C@@H]5CCCN5C(=O)[C@H](C)NC(=O)OC)nc4CO)cc3)cc2)c[nH]1 [Example J14f.1, methyl ((1S)-2-((2S)-2-(4-(4'-(4-(hydroxymethyl)-2-((2S)-1-(N-(methoxycarbonyl)-L-alanyl)-2-pyrrolidinyl)-1H-imidazol-5-yl)-4-biphenylyl)-1H-imidazol-2-yl)-1-pyrrolidinyl)-1-methyl-2-oxoethyl)carbamate] | 1000 to 99000
10 | CC(=O)N[C@@H](C(=O)N1[C@@H]2CC2C[C@H]1c1nc(-c2ccc(-c3ccc(-c4c[nH]c([C@@H]5C[C@H]6C[C@H]6N5C(=O)[C@H](NC(C)=O)C(C)C)n4)cc3)cc2)c[nH]1)C(C)C (mixture of isomers) [Example M143, N-((1R)-1-(((1R,3S,5R)-3-(4-(4'-(2-((1R,3S,SR)-2-((2R)-2-acetamido-3-methylbutanoyl)-2-azabicyclo[3.1.0]hex-3-yl)-1H-imidazol-4-yl)-4-biphenylyl)-1H-imidazol-2-yl)-2-azabicyclo[3.1.0]hex-2-yl)carbonyl)-2-methylpropyl)acetamide] | 1000 to 99000
11 | COC(=O)N[C@@H](C(=O)N1[C@@H](C)CC[C@H]1c1nc(-c2ccc(-c3ccc(-c4c[nH]c([C@@H]5CC[C@H](C)N5C(=O)[C@H](NC(=O)OC)c5ccccc5)n4)cc3)cc2)c[nH]1)c1ccccc1 [Example M153, dimethyl (4,4'-biphenyldiylbis(1H-imidazole-4,2-diyl((2S,5S)-5-methyl-2,1-pyrrolidinediyl)((1R)-2-oxo-1-phenyl-2,1-ethanediyl)))biscarbamate] | 1 to 999
12 | Cc1[nH]c([C@@H]2CCCN2C(=O)[C@@H](c2ccccc2)N(C)C)nc1-c1ccc(-c2ccc(-c3c[nH]c([C@@H]4CCCN4C(=O)[C@@H](c4ccccc4)N(C)C)n3)cc2)cc1 [Example E5, (1R)-2-((2S)-2-(4-(4'-(2-((2S)-1-((2R)-2-(dimethylamino)-2-phenylacetyl)-2-pyrrolidinyl)-1H-imidazol-4-yl)-4-biphenylyl)-5-methyl-1 H-imidazol-2-yl)-1-pyrrolidinyl)-N,N-dimethyl-2-oxo-1-phenylethanamine] | 1 to 999
13 | COC(=O)N[C@H](C(=O)N1[C@@H](C)CC[C@H]1c1nc(-c2ccc(-c3ccc(-c4c[nH]c([C@@H]5CC[C@H](C)N5C(=O)[C@@H](NC(=O)OC)C(C)C)n4)cc3)cc2)c[nH]1)C(C)C [Example M151, methyl ((1S)-1-(((2S,5S)-2-(4-(4'-(2-((2S,5S)-1-((2S)-2-((methoxycarbonyl)amino)-3-methylbutanoyl)-5-methyl-2-pyrrolidinyl)-1H-imidazol-4-yl)-4-biphenylyl)-1H-imidazol-2-yl)-5-methyl-1-pyrrolidinyl)carbonyl)-2-methylpropyl)carbamate] | 1 to 999
14 | COC(=O)NCC(=O)N1[C@@H](C)CC[C@H]1c1nc(-c2ccc(-c3ccc(-c4c[nH]c([C@@H]5CC[C@H](C)N5C(=O)CNC(=O)OC)n4)cc3)cc2)c[nH]1 [Example M155, methyl (2-((2S,5S)-2-(4-(4'-(2-((2S,5S)-1-(((methoxycarbonyl)amino)acetyl)-5-methyl-2-pyrrolidinyl)-1H-imidazol-4-yl)-4-biphenylyl)-1H-imidazol-2-yl)-5-methyl-1-pyrrolidinyl)-2-oxoethyl)carbamate] | 1000 to 99000
15 | CC(C)[C@H](Nc1ncccn1)C(=O)N1[C@@H]2C[C@@H]2C[C@H]1c1ncc(-c2ccc(-c3ccc(-c4cnc([C@@H]5C[C@H]6C[C@H]6N5C(=O)[C@@H](Nc5ncccn5)C(C)C)[nH]4)cc3)cc2)[nH]1 [Example M144, N,N'-(4,4'-biphenyldiylbis(1H-imidazole-4,2-diyl(1R,3S,5R)-2-azabicyclo[3.1.0]hexane-3,2-diyl((2S)-3-methyl-1-oxo-1, -butanediyl)))di(2-pyrimidinamine)] | 1 to 999
16 | COC(=O)Cc1[nH]c([C@@H]2CCCN2C(=O)[C@@H](NC(=O)OC)C(C)C)nc1-c1ccc(-c2ccc(-c3c[nH]c([C@@H]4CCCN4C(=O)[C@@H](NC(=O)OC)C(C)C)n3)cc2)cc1 [Example J14b.1, methyl (2-((2S)-1-(N-(methoxycarbonyl)-L-valyl)-2-pyrrolidinyl)-4-(4'-(2-((2S)-1-(N-(methoxycarbonyl)-L-valyl)-2-pyrrolidinyl)-1H-imidazol-4-yl)-4-biphenylyl)-1H-imidazol-5-yl)acetate] | 1 to 999
17 | COC(=O)NCC(=O)N1CC2(CC2)C[C@H]1c1nc(-c2ccc(-c3ccc(-c4c[nH]c([C@@H]5CC6(CC6)CN5C(=O)CNC(=O)OC)n4)cc3)cc2)c[nH]1 [Example M146, methyl (2-((6S)-6-(4-(4'-(2-((6S)-5-(((methoxycarbonyl)amino)acetyl)-5-azaspiro[2.4]hept-6-yl)-1H-imidazol-4-yl)-4-biphenylyl)-1H-imidazol-2-yl)-5-azaspiro[2.4]hept-5-yl)-2-oxoethyl)carbamate] | 1 to 999
18 | COC(=O)N[C@H](C(=O)N1CCC[C@H]1c1nc(-c2ccc(-c3ccc(-c4nc([C@@H]5CCCN5C(=O)[C@@H](NC(=O)OC)[C@@H](C)OC)[nH]c4C)cc3)cc2)c(C)[nH]1)[C@@H](C)OC [Example E5m, methyl ((1S,2R)-2-methoxy-1-(((2S)-2-(4-(4'-(2-((2S)-1-(N-(methoxycarbonyl)-O-methyl-L-threonyl)-2-pyrrolidinyl)-5-methyl-1H-imidazol-4-yl)-4-biphenylyl)-5-methyl-1H-imidazol-2-yl)-1-pyrrolidinyl)carbonyl)propyl)carbamate] | 1 to 999
